{"source": "patent US20060013769A1", "about": "“Transdermal drug delivery formulations and method of determining optimal amounts of vasodilators therein” (priority 2004, published 2006)", "type_in_all_cases": "in vivo", "key": {"[1]": {"test": "Topical ibuprofen vehicle with tolazoline applied to rabbits, ibuprofen in plasma over three hours", "procedure": "Test formulations containing 15% ibuprofen-sodium salt, 5% oleic acid, 10% menthol, 5% propylene glycol, 10% dimethylacetamide, 1% decylmethylsulfoxide, 1% u-care, varying amounts of tolazoline ranging from 0-0.1%, and 52.9-53% deionized water were each blended in a beaker with a mechanical mixer and heated to 40° C. for 30 minutes until clear, then cooled to room temperature.\n150 mg of sodium salt-ibuprofen was formulated with the above lipid-based vehicle formulatiosn containing increasing amounts of the vasodilator tolazoline. The Ibuprofen vehicle was topically applied to rabbits and blood samples were taken over a three-hour period. Plasma was prepared and analyzed for the amount of ibuprofen present in the blood. The data represents the integrated value of ibuprofen concentration in the blood for the three hour time period for each concentration of tolazoline."}, "[2]": {"test": "Topical ibuprofen vehicle with tocopherol nicotinate applied to rabbits, ibuprofen in plasma over three hours", "procedure": "Test formulations containing 15% ibuprofen-sodium salt, 5% oleic acid, 10% menthol, 5% propylene glycol, 10% dimethylacetamide, 1% decylmethylsulfoxide, 1% u-care, varying amounts of tocopherol nicotinate in the range of 0-1%, and 52-53% deionized water were each blended in a beaker with a mechanical mixer and heated to 40° C. for 30 minutes until clear, then cooled to room temperature.\n150 mg of sodium salt-ibuprofen was formulated with a 1-gram dose of the above lipid-based vehicle formulations containing the increasing amounts of the vasodilator tocopherol nicotinate. The Ibuprofen vehicle was topically applied to rabbits and blood samples were taken over a three-hour period. Plasma was prepared and analyzed for the amount of ibuprofen present in the blood. The data represents the integrated value of ibuprofen concentration in the blood for the three hour time period for each concentration of tocopherol nicotinate."}, "[3]": {"test": "Topical ibuprofen vehicle with papaverine applied to rabbits, ibuprofen in plasma over three hours", "procedure": "Test formulations containing 15% ibuprofen-sodium salt, 5% oleic acid, 10% menthol, 5% propylene glycol, 10% dimethylacetamide, 1% decylmethylsulfoxide, 1% u-care, varying amounts of papaverine ranging from 0-1%, and 52-53% deionized water were each blended in a beaker with a mechanical mixer and heated to 40° C. for 30 minutes until clear, then cooled to room temperature.\n150 mg of sodium salt-ibuprofen was formulated with the above lipid-based vehicle formulatiosn containing increasing amounts of the vasodilator papaverine. The Ibuprofen vehicle was topically applied to rabbits and blood samples were taken over a three-hour period. Plasma was prepared and analyzed for the amount of ibuprofen present in the blood. The data represents the integrated value of ibuprofen concentration in the blood for the three hour time period for each concentration of papaverine."}, "blood flow": {"system": "blood flow", "test": "Maximal blood flow stimulated by vasodilator, laser Doppler perfusion imager", "procedure": "Maximal blood flow stimulated by the vasodilator tolazoline was measured using a laser Doppler perfusion imager."}}}
{"smiles": "CC(C)Cc1ccc(C(C)C(=O)O)cc1", "note": "(centres unmarked) [Ibuprofen, ibuprofen]", "values": [{"measurement": "integrated value of ibuprofen concentration in the blood (0-3 hr)", "setting": "[1]; 0.0010% tolazoline in vehicle", "result": 3900, "unit": "ng·h/mL"}, {"measurement": "integrated value of ibuprofen concentration in the blood (0-3 hr)", "setting": "[1]; 0.0050% tolazoline in vehicle", "result": 5240, "unit": "ng·h/mL"}, {"measurement": "integrated value of ibuprofen concentration in the blood (0-3 hr)", "setting": "[1]; 0.0100% tolazoline in vehicle", "result": 5660, "unit": "ng·h/mL"}, {"measurement": "integrated value of ibuprofen concentration in the blood (0-3 hr)", "setting": "[1]; 0.0500% tolazoline in vehicle", "result": 3530, "unit": "ng·h/mL"}, {"measurement": "integrated value of ibuprofen concentration in the blood (0-3 hr)", "setting": "[1]; 0.100% tolazoline in vehicle", "result": 4530, "unit": "ng·h/mL"}, {"measurement": "integrated value of ibuprofen concentration in the blood (0-3 hr)", "setting": "[1]; Control (no tolazoline), 150 mg sodium salt-ibuprofen in vehicle", "result": 1030, "unit": "ng·h/mL"}, {"measurement": "integrated value of ibuprofen concentration in the blood (0-3 hr)", "setting": "[2]; 0.00010% tocopherol nicotinate in vehicle", "result": 3980, "unit": "ng·h/mL"}, {"measurement": "integrated value of ibuprofen concentration in the blood (0-3 hr)", "setting": "[2]; 0.00025% tocopherol nicotinate in vehicle", "result": 9480, "unit": "ng·h/mL"}, {"measurement": "integrated value of ibuprofen concentration in the blood (0-3 hr)", "setting": "[2]; 0.00050% tocopherol nicotinate in vehicle", "result": 3120, "unit": "ng·h/mL"}, {"measurement": "integrated value of ibuprofen concentration in the blood (0-3 hr)", "setting": "[2]; 0.0010% tocopherol nicotinate in vehicle", "result": 5080, "unit": "ng·h/mL"}, {"measurement": "integrated value of ibuprofen concentration in the blood (0-3 hr)", "setting": "[2]; 0.0100% tocopherol nicotinate in vehicle", "result": 5840, "unit": "ng·h/mL"}, {"measurement": "integrated value of ibuprofen concentration in the blood (0-3 hr)", "setting": "[2]; 0.100% tocopherol nicotinate in vehicle", "result": 4300, "unit": "ng·h/mL"}, {"measurement": "integrated value of ibuprofen concentration in the blood (0-3 hr)", "setting": "[2]; 1.000% tocopherol nicotinate in vehicle", "result": 4400, "unit": "ng·h/mL"}, {"measurement": "integrated value of ibuprofen concentration in the blood (0-3 hr)", "setting": "[2]; Control (no tocopherol nicotinate), 150 mg sodium salt-ibuprofen in 1 g vehicle", "result": 1030, "unit": "ng·h/mL"}, {"measurement": "integrated value of ibuprofen concentration in the blood (0-3 hr)", "setting": "[3]; 0.00010% papaverine in vehicle", "result": 5120, "unit": "ng·h/mL"}, {"measurement": "integrated value of ibuprofen concentration in the blood (0-3 hr)", "setting": "[3]; 0.00025% papaverine in vehicle", "result": 4470, "unit": "ng·h/mL"}, {"measurement": "integrated value of ibuprofen concentration in the blood (0-3 hr)", "setting": "[3]; 0.00050% papaverine in vehicle", "result": 8370, "unit": "ng·h/mL"}, {"measurement": "integrated value of ibuprofen concentration in the blood (0-3 hr)", "setting": "[3]; 0.0010% papaverine in vehicle", "result": 7620, "unit": "ng·h/mL"}, {"measurement": "integrated value of ibuprofen concentration in the blood (0-3 hr)", "setting": "[3]; 0.0100% papaverine in vehicle", "result": 5720, "unit": "ng·h/mL"}, {"measurement": "integrated value of ibuprofen concentration in the blood (0-3 hr)", "setting": "[3]; 0.100% papaverine in vehicle", "result": 4230, "unit": "ng·h/mL"}, {"measurement": "integrated value of ibuprofen concentration in the blood (0-3 hr)", "setting": "[3]; 1.000% papaverine in vehicle", "result": 6160, "unit": "ng·h/mL"}, {"measurement": "integrated value of ibuprofen concentration in the blood (0-3 hr)", "setting": "[3]; Control (no papaverine), 150 mg sodium salt-ibuprofen in vehicle", "result": 1030, "unit": "ng·h/mL"}]}
{"smiles": "c1ccc(CC2=NCCN2)cc1", "note": "[tolazoline]", "values": [{"measurement": "concentration at which the maximum blood flow was achieved", "setting": "blood flow", "result": 0.5, "unit": "%"}]}
